Like-named read-outs stand apart in the source and are kept apart here.

One assay has as its target T1, AuroraA-TPX2 (Homo sapiens, UniProt O14965).
T1 construct: 20 µL of AuroraA-TPX2 KD GST; GST
T1 sequence (O14965 133-383 limits assumed): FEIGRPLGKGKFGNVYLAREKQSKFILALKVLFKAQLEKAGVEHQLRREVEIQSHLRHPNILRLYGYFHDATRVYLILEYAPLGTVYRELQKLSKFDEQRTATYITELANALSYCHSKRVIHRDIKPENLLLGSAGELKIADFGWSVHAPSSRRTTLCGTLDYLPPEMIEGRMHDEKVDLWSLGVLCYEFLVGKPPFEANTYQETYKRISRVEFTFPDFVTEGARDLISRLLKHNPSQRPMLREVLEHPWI
T1 sequence (Q9ULW0 1-43 partner limits assumed): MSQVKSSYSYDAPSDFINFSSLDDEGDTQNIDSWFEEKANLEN
As to the kind of experiment: AuroraA-TPX2 Homogeneous Time Resolved Fluorescent (HTRF) kinase assay. It is filed as biochemical. The note with it: average, read-out: AurA/TP X2_ IC50_IP (Avg). Summed up:
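Aurora-A/TPX2 phosphorylates biotinylated PLK peptide (about 1 µM) with ATP for about 120 min in 60 mM HEPES pH 7.5, 10 mM MgCl2, 2 mM DTT. EDTA quench, overnight equilibration with Eu-anti-phosphoPLK antibody and SA-APC; HTRF read at 615/655 nm after 320 nm excitation.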
A general note: In TR-FRET formats the signal depends on donor and acceptor labels being close together.

In a further assay the target is T2, AuroraB (Homo sapiens, UniProt Q96GD4).
T2 construct: 20 µL of AuroraB FL His; His
T2 sequence (Q96GD4 whole entry): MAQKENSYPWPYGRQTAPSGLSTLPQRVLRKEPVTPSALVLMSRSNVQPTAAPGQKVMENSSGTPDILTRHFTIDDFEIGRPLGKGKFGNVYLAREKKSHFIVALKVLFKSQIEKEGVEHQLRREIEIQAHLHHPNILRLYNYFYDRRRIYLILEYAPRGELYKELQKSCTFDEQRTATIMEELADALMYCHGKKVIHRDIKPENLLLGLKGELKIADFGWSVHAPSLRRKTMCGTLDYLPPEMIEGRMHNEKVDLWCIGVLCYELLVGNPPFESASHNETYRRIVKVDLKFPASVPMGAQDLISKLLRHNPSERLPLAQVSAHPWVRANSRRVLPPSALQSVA
As to the kind of experiment: AuroraB Homogeneous Time Resolved Fluorescent (HTRF) kinase assay. The format is biochemical. The note with it: average, read-out: AurB_ _IC50_IP (Avg). Summed up: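 Full-length His-tagged AuroraB (400 pM) phosphorylates 0.1 µM biotinylated Histone H3 with 23 µM ATP (Km(app)) in HEPES pH 7.5 with Mg/Mn, about 90 min. EDTA-quenched; Eu-anti-phosphoHistoneH3 and SA-APC HTRF, 655/615 nm ratio as phosphorylation.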

The test system of assay [1] is phosphorylation of Histone H3. As to the kind of experiment: HeLa cell 1-hour phospho-histone assay. It is filed as cell-based. The settings on record: Homo sapiens, HeLa, 1 h, HeLa cells, 1 hour, average, read-out: pHH3 EC50_IP (Avg). As to the method: HeLa cell 1-hour phospho-histone assay
The purpose of this assay is to test the inhibitory effect of Aurora compounds with respect to phosphorylation of Histone H3 in the cellular context. HeLa cells (9x10^4/well) are plated in black 96-well flat-bottom tissue culture plates and incubated for 40 hours prior to compound addition. Compounds are serially diluted in DMSO, followed by dilution into MEM containing […] HEPES; 10ul/well of diluted compounds are added to cells (0.5% DMSO final). Cells are incubated for 1 hour at 37 °C in 5% CO2. Cells are then fixed with 3.7% formaldehyde for 10 minutes, washed with wash buffer (1% goat serum and 0.1% Tween 20 in PBS), then permeabilized with 0.5% Triton X in PBS for 15 minutes. After washing with wash buffer, cells are incubated with primary antibody (Upstate #06-507 anti-phospho-histone (Ser 10) antibody (pHH3) for 1 hour at 10ug/ml. After 2 washes with wash buffer, cells are incubated with secondary antibody (Molecular Probes #A11034 goat anti-rabbit Alexa-488 for 1 hour at 1ug/ml + Hoechst 33342 nuclear dye at 1ug/ml (Molecular Probes). Cells are washed 2 times with wash buffer, and buffer replaced with PBS. Plates are scanned on the Cellomics Array Scan (6 fields, ~2000 cells/well) and % of cells that are pHH3 positive were calculated using the Cellomics algorithm.

Setting [2] is: given as numbers, unit inferred.

For `Nc1nccc(-c2cccnc2Oc2ccc(Nc3nnc(-c4ccc(CO)cc4)c4ccccc34)cc2)n1` [compound 249, (4-(4-((4-((3-(2-amino-4-pyrimidinyl)-2-pyridinyl)oxy)phenyl)amino)-1-phthalazinyl)phenyl)methanol], the IC50 on AuroraA-TPX2 (given as class symbols) and at AuroraB (given as class symbols) was at most 100 nM in each case. In addition, in assay [1] (given as class symbols), the EC50 lay in the range of 100 to 500 nM.
For the compound `Nc1nccc(-c2cccnc2Oc2ccc(Nc3nnc(-c4ccccc4)c4ccoc34)cc2)n1` [compound 250, N-(4-((3-(2-amino-4-pyrimidinyl)-2-pyridinyl)oxy)phenyl)-4-phenylfuro[2,3-d]pyridazin-7-amine], the IC50 at AuroraA-TPX2 (setting [2]) was determined as 30.3 nM; on AuroraB (setting [2]), 19.9 nM. The EC50 in assay [1] (setting [2]) is 175 nM.
Consider `Cc1csc(-c2nnc(Nc3ccc(Oc4ncccc4-c4ccnc(N)n4)cc3)c(C)c2C)c1` [compound 259, N-(4-((3-(2-amino-4-pyrimidinyl)-2-pyridinyl)oxy)phenyl)-4,5-dimethyl-6-(4-methyl-2-thienyl)-3-pyridazinamine], for which the results for the IC50 at AuroraA-TPX2 (setting [2]) and at AuroraB (setting [2]) were 5.9 nM and 2.8 nM, respectively. In addition, the EC50 in assay [1] (setting [2]) worked out at 41.7 nM.
Consider `Nc1nccc(-c2cccnc2Oc2ccc(Nc3ncc(-c4ccccc4)c4ccccc34)cc2)n1` [compound 260, N-(4-((3-(2-amino-4-pyrimidinyl)-2-pyridinyl)oxy)phenyl)-4-phenyl-1-isoquinolinamine], for which the IC50 on AuroraA-TPX2 (setting [2]) was determined as 33 nM; at AuroraB (setting [2]) it was 14.8 nM. The EC50 in assay [1] (setting [2]) was 228 nM.
On to `c1ccc(-c2nnc(Nc3ccc(Oc4nccnc4-c4ccncc4)cc3)c3ccccc23)cc1` [compound 261, 4-phenyl-N-(4-((3-(4-pyridinyl)-2-pyrazinyl)oxy)phenyl)-1-phthalazinamine], for which the IC50 at AuroraA-TPX2 (given as class symbols) and at AuroraB (given as class symbols) was 100 to 500 nM throughout. Further, in assay [1] (given as class symbols), the EC50 was 500 to 2500 nM.
For `Cc1csc(-c2cnc(Nc3ccc(Oc4ncccc4-c4ccnc(N)n4)cc3)c3ccccc23)c1` [compound 262, N-(4-((3-(2-amino-4-pyrimidinyl)-2-pyridinyl)oxy)phenyl)-4-(4-methyl-2-thienyl)-1-isoquinolinamine], the IC50 at AuroraA-TPX2 (setting [2]) came out at 34.8 nM; on AuroraB (setting [2]), 15.8 nM. Further, the EC50 in assay [1] (setting [2]) was found to be 334 nM.
Take `Nc1nccc(-c2cccnc2Oc2ccc(Nc3nnc(-c4ccccc4)cc3O)cc2)n1` [compound 263, 3-((4-((3-(2-amino-4-pyrimidinyl)-2-pyridinyl)oxy)phenyl)amino)-6-phenyl-4-pyridazinol]: the IC50 on AuroraA-TPX2 (given as class symbols) and on AuroraB (given as class symbols) was 500 to 2500 nM in each case. Also, in assay [1] (given as class symbols), the EC50 is 500 to 2500 nM.
Take `Nc1nccc(-c2cccnc2Oc2ccc(Nc3nnc(C4CCCCC4)c4ccccc34)cn2)n1` [compound 274, N-(6-((3-(2-amino-4-pyrimidinyl)-2-pyridinyl)oxy)-3-pyridinyl)-4-cyclohexyl-1-phthalazinamine]: the IC50 at AuroraA-TPX2 (given as class symbols) and on AuroraB (given as class symbols) was at most 100 nM throughout. Also, the EC50 in assay [1] (given as class symbols) is at most 100 nM.
Consider `Nc1nccc(-c2cccnc2Oc2ccc(Nc3nnc(N4CCCC(F)C4)c4ccccc34)cc2)n1` (stereo not drawn) [compound 278, N-(4-((3-(2-amino-4-pyrimidinyl)-2-pyridinyl)oxy)phenyl)-4-(3-fluoro-1-piperidinyl)-1-phthalazinamine], for which the IC50 on AuroraA-TPX2 (setting [2]) is 29.9 nM; at AuroraB (setting [2]), 7.4 nM. Further, in assay [1] (setting [2]), the EC50 was found to be 282 nM.
Consider `CN1CCN(CCCNc2cc(-c3cccnc3Oc3ccc(Nc4nnc(-c5ccccc5)c5ccccc45)cc3)ccn2)CC1` [compound 279, N-(3-(4-methyl-1-piperazinyl)propyl)-2-((4-((4-phenyl-1-phthalazinyl)amino)phenyl)oxy)-3,4'-bipyridin-2'-amine], for which the IC50 on AuroraA-TPX2 (given as class symbols) is 100 to 500 nM; on AuroraB (given as class symbols), at most 100 nM. Further, the EC50 in assay [1] (given as class symbols) lay in the range of 100 to 500 nM.
As to `Cc1cc(-c2ccccc2)nnc1Nc1ccc(Oc2ncccc2-c2ccnc(NCCCN3CCN(C)CC3)n2)nc1` [compound 280, 4-methyl-N-(6-((3-(2-((3-(4-methyl-1-piperazinyl)propyl)amino)-4-pyrimidinyl)-2-pyridinyl)oxy)-3-pyridinyl)-6-phenyl-3-pyridazinamine], the IC50 on AuroraA-TPX2 (given as class symbols) and on AuroraB (given as class symbols) was at most 100 nM each time. For the same compound, in assay [1] (given as class symbols), the EC50 was in the range of 100 to 500 nM.
For `O=C1Cc2c(-c3cccnc3Oc3ccc(Nc4nnc(-c5ccccc5)c5ccccc45)cc3)ccnc2N1` [compound 281, 4-(2-((4-((4-phenyl-1-phthalazinyl)amino)phenyl)oxy)-3-pyridinyl)-1,3-dihydro-2H-pyrrolo[2,3-b]pyridin-2-one], the IC50 at AuroraA-TPX2 (setting [2]) turned out to be 20.4 nM; at AuroraB (setting [2]), 6.1 nM. The EC50 in assay [1] (setting [2]) stood at 170 nM.
Take `Cc1cc(-c2ccccc2)nnc1Nc1ccc(Oc2ncccc2-c2ccnc3c2CC(=O)N3)cc1` [compound 282, 4-(2-((4-((4-methyl-6-phenyl-3-pyridazinyl)amino)phenyl)oxy)-3-pyridinyl)-1,3-dihydro-2H-pyrrolo[2,3-b]pyridin-2-one]: the IC50 on AuroraA-TPX2 (given as class symbols) and at AuroraB (given as class symbols) was at most 100 nM each time. Further, the EC50 in assay [1] (given as class symbols) lay in the range of 100 to 500 nM.
As for `CN(C)Cc1cccc(-c2nnc(Nc3ccc(Oc4ncccc4-c4ccnc(N)n4)cc3)c3ccccc23)c1` [compound 299, N-(4-((3-(2-amino-4-pyrimidinyl)-2-pyridinyl)oxy)phenyl)-4-(3-((dimethylamino)methyl)phenyl)-1-phthalazinamine], the IC50 at AuroraA-TPX2 (given as class symbols) was 100 to 500 nM; at AuroraB (given as class symbols), at most 100 nM. For the same compound, the EC50 in assay [1] (given as class symbols) fell in the range of 500 to 2500 nM.
For `Cc1n[nH]cc1-c1cccnc1Oc1ccc(Nc2nnc(-c3ccccc3)c3ccccc23)cc1` [compound 300, N-(4-((3-(3-methyl-1H-pyrazol-4-yl)-2-pyridinyl)oxy)phenyl)-4-phenyl-1-phthalazinamine], the IC50 on AuroraA-TPX2 (given as class symbols) and at AuroraB (given as class symbols) was 100 to 500 nM in each case. Further, in assay [1] (given as class symbols), the EC50 fell in the range of 100 to 500 nM.
On to `Cc1ccc(-c2nnc(Nc3ccc(Oc4ncccc4-c4c[nH]nc4N)cc3)c3ccccc23)cc1` [compound 301, N-(4-((3-(3-amino-1H-pyrazol-4-yl)-2-pyridinyl)oxy)phenyl)-4-(4-methylphenyl)-1-phthalazinamine], for which the IC50 at AuroraA-TPX2 (setting [2]) came out at 5.5 nM; at AuroraB (setting [2]), 3.1 nM. Further, the EC50 in assay [1] (setting [2]) amounted to 166 nM.
With `Cc1cc(-c2ccccc2)nnc1Nc1ccc(Oc2ncccc2-c2c[nH]nc2N)cc1` [compound 302, N-(4-((3-(3-amino-1H-pyrazol-4-yl)-2-pyridinyl)oxy)phenyl)-4-methyl-6-phenyl-3-pyridazinamine], the IC50 on AuroraA-TPX2 (given as class symbols) and at AuroraB (given as class symbols) was at most 100 nM each time. In assay [1] (given as class symbols), the EC50 fell in the range of 500 to 2500 nM.
`Nc1n[nH]cc1-c1cccnc1Oc1ccc(Nc2nnc(Cc3ccccc3)c3ccccc23)cc1` [compound 303, N-(4-((3-(3-amino-1H-pyrazol-4-yl)-2-pyridinyl)oxy)phenyl)-4-(phenylmethyl)-1-phthalazinamine]: the IC50 at AuroraA-TPX2 (setting [2]) was determined as 3.2 nM; at AuroraB (setting [2]), 16.6 nM. Besides, in assay [1] (setting [2]), the EC50 was 729 nM.
For `Nc1n[nH]cc1-c1cccnc1Oc1ccc(Nc2nnc(-c3ccccc3)c3ccsc23)cc1` [compound 304, N-(4-((3-(3-amino-1H-pyrazol-4-yl)-2-pyridinyl)oxy)phenyl)-4-phenylthieno[2,3-d]pyridazin-7-amine], the IC50 on AuroraA-TPX2 (setting [2]) worked out at 16.4 nM; on AuroraB (setting [2]) it was 68.7 nM. Further, the EC50 in assay [1] (setting [2]) was determined as 788 nM.
On to `Nc1n[nH]cc1-c1cccnc1Oc1ccc(Nc2nnc(-c3cccc(CO)c3)c3ccccc23)cc1` [compound 305, (3-(4-((4-((3-(3-amino-1H-pyrazol-4-yl)-2-pyridinyl)oxy)phenyl)amino)-1-phthalazinyl)phenyl)methanol], for which the IC50 on AuroraA-TPX2 (given as class symbols) and at AuroraB (given as class symbols) was at most 100 nM in each case. In addition, the EC50 in assay [1] (given as class symbols) fell in the range of 500 to 2500 nM.

These data come from patent publication EP1984353B1, “AURORA KINASE MODULATORS AND METHOD OF USE” (Amgen, Inc, priority 2006, dated 2007).
